Measured values: the NIST ThermoML archive (doi:10.1021/je2009736)

Columns and labels:
[1] = xn = mol fraction of the nth substance listed; conditions: 101 kPa, Liquid, Vibrating tube method
[2] = 298.15 K; 101.33 kPa; Liquid; Vibrating tube method

C[SiH]1O[SiH](C)O[SiH](C)O[SiH](C)O1 (stereo unspecified) [2,4,6,8-tetramethyl-1,3,5,7,2,4,6,8-tetroxatetrasilocane] + Cc1cccc(C)c1
mass density [kg/m3], [1]
Conditions | 288.15 K | 298.15 K | 308.15 K
x1 = 0.05 | 882 | 873.13 | 864.29
x1 = 0.1001 | 894.34 | 885.16 | 876.06
x1 = 0.15 | 905.42 | 896 | 886.6
x1 = 0.1999 | 915.45 | 905.8 | 896.12
x1 = 0.2498 | 924.55 | 914.65 | 904.73
x1 = 0.2999 | 932.94 | 922.8 | 912.66
x1 = 0.35 | 940.55 | 930.19 | 919.83
x1 = 0.3995 | 947.41 | 936.84 | 926.34
x1 = 0.4504 | 953.92 | 943.11 | 932.41
x1 = 0.5 | 959.71 | 948.69 | 937.79
x1 = 0.55 | 965.11 | 953.9 | 942.81
x1 = 0.5996 | 970.04 | 958.65 | 947.34
x1 = 0.65 | 974.69 | 963.1 | 951.62
x1 = 0.6995 | 978.87 | 967.14 | 955.47
x1 = 0.7495 | 982.81 | 970.92 | 959.07
x1 = 0.7996 | 986.48 | 974.42 | 962.42
x1 = 0.8498 | 989.84 | 977.65 | 965.47
x1 = 0.8994 | 992.98 | 980.64 | 968.32

C[SiH]1O[SiH](C)O[SiH](C)O[SiH](C)O1 (stereo unspecified) [2,4,6,8-tetramethyl-1,3,5,7,2,4,6,8-tetroxatetrasilocane] + Cc1ccccc1
mass density [kg/m3], [1]
Conditions | 288.15 K | 298.15 K | 308.15 K
x1 = 0.0499 | 886.6 | 877.08 | 867.53
x1 = 0.0999 | 899.94 | 890.19 | 880.4
x1 = 0.15 | 911.67 | 901.66 | 891.68
x1 = 0.2 | 921.98 | 911.75 | 901.57
x1 = 0.25 | 931.15 | 920.71 | 910.33
x1 = 0.3 | 939.31 | 928.7 | 918.15
x1 = 0.3502 | 946.71 | 935.91 | 925.11
x1 = 0.4 | 953.26 | 942.25 | 931.31
x1 = 0.4501 | 959.23 | 948.05 | 936.94
x1 = 0.5004 | 964.63 | 953.32 | 942.01
x1 = 0.5504 | 969.56 | 958.11 | 946.61
x1 = 0.5998 | 973.98 | 962.38 | 950.74
x1 = 0.6497 | 978.02 | 966.26 | 954.47
x1 = 0.6994 | 981.74 | 969.83 | 957.9
x1 = 0.7497 | 985.15 | 973.12 | 961.05
x1 = 0.8 | 988.34 | 976.19 | 963.99
x1 = 0.8494 | 991.18 | 978.9 | 966.61
x1 = 0.8995 | 993.85 | 981.45 | 969.04

C[SiH]1O[SiH](C)O[SiH](C)O[SiH](C)O1 (stereo unspecified) [2,4,6,8-tetramethyl-1,3,5,7,2,4,6,8-tetroxatetrasilocane] + Cc1ccc(C)cc1
mass density [kg/m3], [1]
Conditions | 288.15 K | 298.15 K | 308.15 K
x1 = 0.0499 | 879.33 | 870.42 | 861.48
x1 = 0.0999 | 892.03 | 882.82 | 873.61
x1 = 0.1501 | 903.51 | 893.96 | 884.48
x1 = 0.1999 | 913.85 | 904.11 | 894.33
x1 = 0.25 | 923.25 | 913.34 | 903.35
x1 = 0.2999 | 931.83 | 921.7 | 911.4
x1 = 0.3501 | 939.62 | 929.23 | 918.8
x1 = 0.4 | 946.73 | 936.18 | 925.53
x1 = 0.4502 | 953.29 | 942.54 | 931.67
x1 = 0.4997 | 959.21 | 948.26 | 937.19
x1 = 0.5493 | 964.63 | 953.54 | 942.24
x1 = 0.6001 | 969.79 | 958.45 | 947.03
x1 = 0.6501 | 974.4 | 962.93 | 951.37
x1 = 0.7002 | 978.67 | 967.02 | 955.31
x1 = 0.7472 | 982.39 | 970.62 | 958.76
x1 = 0.7998 | 986.27 | 974.32 | 962.3
x1 = 0.8492 | 989.69 | 977.56 | 965.38
x1 = 0.9002 | 992.92 | 980.61 | 968.28

Cc1ccccc1C [1,2-dimethylbenzene]
Conditions | mass density [kg/m3]
[2] | 875.72

C[SiH]1O[SiH](C)O[SiH](C)O[SiH](C)O1 (stereo unspecified) [2,4,6,8-tetramethyl-1,3,5,7,2,4,6,8-tetroxatetrasilocane] + c1ccccc1
mass density [kg/m3], [1]
Conditions | 288.15 K | 298.15 K | 308.15 K
x1 = 0.0497 | 898.88 | 888.24 | 877.55
x1 = 0.0999 | 911.74 | 900.99 | 890.29
x1 = 0.1499 | 922.78 | 911.91 | 901.26
x1 = 0.1997 | 932.3 | 921.32 | 910.69
x1 = 0.2501 | 940.72 | 929.65 | 918.93
x1 = 0.3 | 948.04 | 936.87 | 926.1
x1 = 0.35 | 954.56 | 943.15 | 932.28
x1 = 0.3999 | 960.28 | 948.81 | 937.73
x1 = 0.4498 | 965.46 | 953.89 | 942.65
x1 = 0.4999 | 970.05 | 958.4 | 947.02
x1 = 0.5498 | 974.22 | 962.44 | 950.92
x1 = 0.5999 | 978.03 | 966.16 | 954.53
x1 = 0.6486 | 981.36 | 969.41 | 957.65
x1 = 0.7001 | 984.61 | 972.54 | 960.64
x1 = 0.7495 | 987.43 | 975.28 | 963.27
x1 = 0.8001 | 990.04 | 977.8 | 965.71
x1 = 0.8499 | 992.42 | 980.12 | 967.91
x1 = 0.8986 | 994.56 | 982.19 | 969.9

C[SiH]1O[SiH](C)O[SiH](C)O[SiH](C)O1 (stereo unspecified) [2,4,6,8-tetramethyl-1,3,5,7,2,4,6,8-tetroxatetrasilocane]
Conditions | mass density [kg/m3]
[2] | 992.39

c1ccccc1 [benzene]
Conditions | mass density [kg/m3]
[2] | 873.57

Cc1ccc(C)cc1 [1,4-dimethylbenzene]
Conditions | mass density [kg/m3]
[2] | 856.67

C[SiH]1O[SiH](C)O[SiH](C)O[SiH](C)O1 (stereo unspecified) [2,4,6,8-tetramethyl-1,3,5,7,2,4,6,8-tetroxatetrasilocane] + Cc1ccccc1C
mass density [kg/m3], [1]
Conditions | 288.15 K | 298.15 K | 308.15 K
x1 = 0.0499 | 896.79 | 888.17 | 879.45
x1 = 0.1 | 908.22 | 899.3 | 890.28
x1 = 0.15 | 918.4 | 909.22 | 899.95
x1 = 0.2 | 927.56 | 918.11 | 908.59
x1 = 0.25 | 935.82 | 926.11 | 916.33
x1 = 0.2998 | 943.2 | 933.25 | 923.21
x1 = 0.3501 | 949.98 | 939.8 | 929.53
x1 = 0.3998 | 956.06 | 945.66 | 935.16
x1 = 0.4496 | 961.56 | 950.95 | 940.25
x1 = 0.4998 | 966.65 | 955.84 | 944.92
x1 = 0.5497 | 971.24 | 960.22 | 949.1
x1 = 0.5997 | 975.45 | 964.25 | 952.96
x1 = 0.6496 | 979.25 | 967.88 | 956.36
x1 = 0.7001 | 982.82 | 971.27 | 959.58
x1 = 0.7502 | 986.05 | 974.32 | 962.44
x1 = 0.7998 | 988.96 | 977.09 | 965.04
x1 = 0.848 | 991.61 | 979.54 | 967.33
x1 = 0.9002 | 994.23 | 982.02 | 969.65

Cc1cccc(C)c1 [1,3-dimethylbenzene]
Conditions | mass density [kg/m3]
[2] | 859.86

Cc1ccccc1 [toluene]
Conditions | mass density [kg/m3]
[2] | 862.23
